The results in this text go back to patent publication US9505710B2 (priority 2015, dated 2016).

Counter-ions that a name gives are not always drawn.

In the assay the target is BoNT/A LC1-429 (Clostridium botulinum, UniProt P0DPI1). Put plainly: biochemical. The note with it: BoNT/A Ki (nM).
Chain of BoNT/A LC1-429 (P0DPI1 1-429, added parts left off): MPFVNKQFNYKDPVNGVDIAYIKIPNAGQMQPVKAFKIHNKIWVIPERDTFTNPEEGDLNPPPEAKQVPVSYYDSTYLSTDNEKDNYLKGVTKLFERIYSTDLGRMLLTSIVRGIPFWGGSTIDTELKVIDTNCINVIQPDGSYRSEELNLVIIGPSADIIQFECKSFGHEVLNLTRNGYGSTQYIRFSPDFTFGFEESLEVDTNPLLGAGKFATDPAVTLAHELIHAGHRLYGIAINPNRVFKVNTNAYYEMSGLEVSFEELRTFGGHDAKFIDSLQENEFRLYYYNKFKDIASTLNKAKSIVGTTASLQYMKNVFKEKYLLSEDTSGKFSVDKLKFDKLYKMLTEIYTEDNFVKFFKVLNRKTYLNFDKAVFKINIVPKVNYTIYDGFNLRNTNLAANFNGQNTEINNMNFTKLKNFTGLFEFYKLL
Consider `CO[C@H](CC(=O)NO)[C@H](Cc1ccc(Cl)cc1)c1ccc(F)cc1` [Example 6-2, (3R,4R)-5-(4-chlorophenyl)-4-(4-fluorophenyl)-N-hydroxy-3-methoxypentanamide potassium salt], for which the affinity corresponds to a Ki of 13 nM. This counts as double-digit nanomolar.

As for `CCO[C@H](CC(=O)NO)[C@H](Cc1ccc(Cl)cc1)c1ccc(F)cc1` [Example 6-3, (3R,4R)-5-(4-chlorophenyl)-3-ethoxy-4-(4-fluorophenyl)-N-hydroxypentanamide potassium salt], the Ki was 8.9 nM.

`CO[C@H](CC(=O)NO)[C@H](Cc1ccc(Cl)cc1C)c1ccc(F)cc1` [Example 6-4, (3R,4R)-5-(4-chloro-2-methylphenyl)-4-(4-fluorophenyl)-N-hydroxy-3-methoxypentanamide] yielded a Ki of 1.48 nM.

The compound `CO[C@H](CC(=O)NO)[C@H](Cc1ccc(Cl)cc1C)c1ccc(F)cc1` [Example 6-5, (3R,4R)-5-(4-chloro-2-methylphenyl)-4-(4-fluorophenyl)-N-hydroxy-3-methoxypentanamide potassium salt] gave a Ki of 3.88 nM.

For `CCO[C@H](CC(=O)NO)[C@H](Cc1ccc(Cl)cc1Cl)c1ccc(Br)cc1` [Example 6-6, (3R,4R)-4-(4-bromophenyl)-5-(2,4-dichlorophenyl)-3-ethoxy-N-hydroxypentanamide], the Ki was found to be 4.9 nM. The Ki values of the last two compounds are within 1.5-fold of each other.

`CO[C@H](CC(=O)NO)[C@H](Cc1ccc(Cl)cc1)c1ccc(C(=O)N(C)C)cc1` [Example 6-7, 4-((2R,3R)-1-(4-chlorophenyl)-5-(hydroxyamino)-3-methoxy-5-oxopentan-2-yl)-N,N-dimethylbenzamide] showed a Ki of 26.2 nM. Compared with the last compound, the Ki is about 5.3-fold higher.

For `CO[C@H](CC(=O)NO)[C@H](Cc1ccc(Cl)cc1C)c1ccc(CN2CCOCC2)cc1F` [Example 6-8, (3R,4R)-5-(4-chloro-2-methylphenyl)-4-(2-fluoro-4-(morpholinomethyl)phenyl)-N-hydroxy-3-methoxypentanamide], the Ki turned out to be 45.8 nM.

The compound `CCO[C@H](CC(=O)NO)[C@H](Cc1ccc(Cl)cc1)c1ccc(Cl)c(N2CCOCC2)c1` [Example 6-9, (3R,4R)-4-(4-chloro-3-morpholinophenyl)-5-(4-chlorophenyl)-3-ethoxy-N-hydroxypentanamide] registered an inhibition constant Ki of 5.8 nM.

Take `CCO[C@H](CC(=O)NO)[C@H](Cc1ccc(Cl)cc1C)c1ccc(F)cc1F` [Example 6-10, (3R,4R)-5-(4-chloro-2-methylphenyl)-4-(2,4-difluorophenyl)-3-ethoxy-N-hydroxypentanamide]: the Ki was found to be 10 nM.

In turn, `CCO[C@H](CC(=O)NO)[C@H](Cc1ccc(Cl)cc1)c1ccc(F)cc1F` [Example 6-11, (3R,4R)-5-(4-chlorophenyl)-4-(2,4-difluorophenyl)-3-ethoxy-N-hydroxypentanamide] yielded a Ki of 10.3 nM.

With `CO[C@H](CC(=O)NO)[C@H](Cc1ccc(F)cc1F)c1ccc(F)cc1F` [Example 6-12, (3R,4R)-4,5-bis(2,4-difluorophenyl)-N-hydroxy-3-methoxypentanamide], the Ki was found to be 29.5 nM.

Turning to `O=C(C[C@@H](OCc1ccccc1)[C@H](Cc1ccc(Cl)cc1)c1ccc(F)cc1F)NO` [Example 6-13, (3R,4R)-3-(benzyloxy)-5-(4-chlorophenyl)-4-(2,4-difluorophenyl)-N-hydroxypentanamide], the inhibitory constant (Ki) is 114 nM.

In the case of `COCCO[C@H](CC(=O)NO)[C@H](Cc1ccc(Cl)cc1)c1ccc(F)cc1F` [Example 6-14, (3R,4R)-5-(4-chlorophenyl)-4-(2,4-difluorophenyl)-N-hydroxy-3-(2-methoxyethoxy)pentanamide], the affinity corresponds to a Ki of 55.1 nM.

Take `CCCCO[C@H](CC(=O)NO)[C@H](Cc1ccc(Cl)cc1)c1ccc(F)cc1F` [Example 6-15, (3R,4R)-3-butoxy-5-(4-chlorophenyl)-4-(2,4-difluorophenyl)-N-hydroxypentanamide]: the Ki was found to be 48.5 nM.

The compound `CCCO[C@H](CC(=O)NO)[C@H](Cc1ccc(Cl)cc1)c1ccc(F)cc1F` [Example 6-16, (3R,4R)-5-(4-chlorophenyl)-4-(2,4-difluorophenyl)-N-hydroxy-3-propoxypentanamide] returned a Ki of 38.5 nM. This Ki and that of the compound before are within 1.5-fold of each other.

The term Ki denotes a dissociation constant, usually derived from enzyme kinetics or from competition with a known ligand. Read a low Ki as tighter binding.
